This passage reports IC50 results from US8410117B2, “Imidazopyrimidine derivatives” (Hoffmann-La Roche Inc., priority 2010, dated 2013).

For orientation: IC50 means the concentration that gives 50% inhibition.

The target of the assay is T1, human PDE10A (Homo sapiens, UniProt Q9Y233).
T1 construct: The human PDE10A full length assay; purchased Enzo Life Science, Lausen, Switzerland SE-534
T1 sequence (Q9Y233 1-779 isoform Q9Y233-1): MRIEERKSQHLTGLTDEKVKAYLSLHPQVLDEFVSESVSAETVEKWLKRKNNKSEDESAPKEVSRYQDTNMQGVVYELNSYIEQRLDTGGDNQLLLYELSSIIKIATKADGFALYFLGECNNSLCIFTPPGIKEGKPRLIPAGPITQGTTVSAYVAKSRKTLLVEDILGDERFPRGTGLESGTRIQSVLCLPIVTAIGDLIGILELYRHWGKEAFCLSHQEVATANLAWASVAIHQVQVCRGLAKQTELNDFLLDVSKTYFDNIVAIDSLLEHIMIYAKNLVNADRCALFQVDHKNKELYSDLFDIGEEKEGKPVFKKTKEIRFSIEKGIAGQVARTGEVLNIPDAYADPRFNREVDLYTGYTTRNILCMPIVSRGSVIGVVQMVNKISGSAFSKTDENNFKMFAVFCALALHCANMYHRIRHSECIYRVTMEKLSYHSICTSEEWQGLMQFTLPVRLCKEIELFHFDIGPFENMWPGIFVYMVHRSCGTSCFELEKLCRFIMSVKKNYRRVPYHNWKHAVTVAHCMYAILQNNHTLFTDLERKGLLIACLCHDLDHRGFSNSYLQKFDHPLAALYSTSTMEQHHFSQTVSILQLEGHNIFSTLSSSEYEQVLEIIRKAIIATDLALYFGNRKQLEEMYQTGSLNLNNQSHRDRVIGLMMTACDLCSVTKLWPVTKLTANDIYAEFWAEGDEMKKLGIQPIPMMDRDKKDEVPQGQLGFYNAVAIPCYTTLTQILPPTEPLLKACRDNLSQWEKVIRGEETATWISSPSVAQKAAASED
Nature of the assay: human PDE10A full length Scintillation Proximity Assay (SPA). Type of assay: biochemical. To be noted: 50 nM cGMP and 50 nM [3H]-cGMP, 20 minutes at room temperature; read-out: PDE10A inhibition IC50. The essentials:
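Full-length enzyme at 3.75 ng/well in 20 mM HEPES pH 7.5, 10 mM MgCl2, 0.05 mg/ml BSA, with 50 nM cGMP plus 50 nM [3H]-cGMP substrate, 20 min at room temperature. Stopped with YSi-SPA beads in zinc sulphate and counted by scintillation. IC50 from inhibitor concentration series; no-enzyme wells define background.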
With `Cc1nn(C)c(CNC(=O)c2cnn(C)c2C(=O)Nc2ccn3cc(-c4ccccc4)nc3n2)c1[N+](=O)[O-]` [Example 140, N4-((1,3-dimethyl-4-nitro-1H-pyrazol-5-yl)methyl)-1-methyl-N5-(2-phenylimidazo[1,2-a]pyrimidin-7-yl)-1H-pyrazole-4,5-dicarboxamide], the IC50 came out at 151 nM.
In the case of `Cn1ncc(C(=O)NCc2cn3ccsc3n2)c1C(=O)Nc1ccn2cc(-c3ccccc3)nc2n1` [Example 153, N4-(imidazo[2,1-b]thiazol-6-ylmethyl)-1-methyl-N5-(2-phenylimidazo[1,2-a]pyrimidin-7-yl)-1H-pyrazole-4,5-dicarboxamide] it was 305 nM; in that of `Cn1ncc(C(=O)NCc2ccc(C(F)(F)F)nc2)c1C(=O)Nc1ccn2cc(-c3ccccc3)nc2n1` [Example 144, 1-methyl-N5-(2-phenylimidazo[1,2-a]pyrimidin-7-yl)-N-4-((6-(trifluoromethyl)pyridin-3-yl)methyl)-1H-pyrazole-4,5-dicarboxamide], 198 nM; in that of `Cn1cc2c(n1)CN(C(=O)c1cnn(C)c1C(=O)Nc1ccn3cc(-c4ccccc4)nc3n1)C2` [Example 169, 1-methyl-4-(2-methyl-2,4,5,6-tetrahydropyrrolo[3,4-c]pyrazole-5-carbonyl)-N-(2-phenylimidazo[1,2-a]pyrimidin-7-yl)-1H-pyrazole-5-carboxamide], 963 nM.
The value for `Cn1ncc(C(=O)NC(C)(C)C)c1C(=O)Nc1ccn2cc(-c3ccccc3)nc2n1` [Example 138, N4-tert-butyl-1-methyl-N5-(2-phenylimidazo[1,2-a]pyrimidin-7-yl)-1H-pyrazole-4,5-dicarboxamide] was 130 nM; that for `CN(CCF)C(=O)c1cnn(C)c1C(=O)Nc1ccn2cc(-c3cccc(OCF)c3)nc2n1` [Example 108, 2-Methyl-2H-pyrazole-3,4-dicarboxylic acid 4-[(2-fluoro-ethyl)-methyl-amide]3-{[2-(3-fluoromethoxy-phenyl)-imidazo[1,2-a]pyrimidin-7-yl]-amide}] was 81.7 nM.
`Cn1ncc(C(=O)N2CCCC2)c1C(=O)Nc1ccn2cc(-c3ccccc3)nc2n1` [Example 48, 2-Methyl-4-(pyrrolidine-1-carbonyl)-2H-pyrazole-3-carboxylic acid (2-phenyl-imidazo[1,2-a]pyrimidin-7-yl)-amide]: the IC50 turned out to be 3.5 nM.
In the case of `Cn1ncc(C(=O)N2CC(F)C2)c1C(=O)Nc1ccn2cc(-c3cccc(OCCF)c3)nc2n1` [Example 90, 4-(3-Fluoro-azetidine-1-carbonyl)-2-methyl-2H-pyrazole-3-carboxylic acid {2-[3-(2-fluoro-ethoxy)-phenyl]imidazo[1,2-a]pyrimidin-7-yl}-amide] it was 6.1 nM; in that of `Cn1ncc(C(=O)NCc2ccncc2)c1C(=O)Nc1ccn2cc(-c3ccccc3)nc2n1` [Example 148, 1-methyl-N5-(2-phenylimidazo[1,2-a]pyrimidin-7-yl)-N4-(pyridin-4-ylmethyl)-1H-pyrazole-4,5-dicarboxamide], 244 nM.
In the case of `CCNC(=O)c1cnn(C)c1C(=O)Nc1ccn2cc(-c3ccccc3)nc2n1` [Example 50, 2-Methyl-2H-pyrazole-3,4-dicarboxylic acid 4-ethylamide 3-[(2-phenyl-imidazo[1,2-a]pyrimidin-7-yl)-amide]] it was 24.4 nM; in that of `Cn1ncc(C(=O)NCc2ccc(C#N)nc2)c1C(=O)Nc1ccn2cc(-c3ccccc3)nc2n1` [Example 142, N4-((6-cyanopyridin-3-yl)methyl)-1-methyl-N5-(2-phenylimidazo[1,2-a]pyrimidin-7-yl)-1H-pyrazole-4,5-dicarboxamide], 152 nM; in that of `CCN(CC)C(=O)c1cnn(C)c1C(=O)Nc1ccn2cc(-c3ccccc3)nc2n1` [Example 47, 2-Methyl-2H-pyrazole-3,4-dicarboxylic acid 4-diethylamide 3-[(2-phenyl-imidazo[1,2-a]pyrimidin-7-yl)-amide]], 15.2 nM.
`O=C(Nc1ccn2cc(-c3ccccc3)nc2n1)c1nn[nH]c1C(=O)NC1CC1` [Example 159, N5-cyclopropyl-N4-(2-phenylimidazo[1,2-a]pyrimidin-7-yl)-1H-1,2,3-triazole-4,5-dicarboxamide]: the IC50 amounted to 451 nM.
Take `Cn1ncc(C(=O)NCc2ccccn2)c1C(=O)Nc1ccn2cc(-c3ccccc3)nc2n1` [Example 118, 1-methyl-N5-(2-phenylimidazo[1,2-a]pyrimidin-7-yl)-N4-(pyridin-2-ylmethyl)-1H-pyrazole-4,5-dicarboxamide]: the 50% inhibitory concentration (IC50) was 11.9 nM.
The value for `COCCCNC(=O)c1cnn(C)c1C(=O)Nc1ccn2cc(-c3ccccc3)nc2n1` [Example 39, 2-Methyl-2H-pyrazole-3,4-dicarboxylic acid 4-[(3-methoxy-propyl)-amide]3-[(2-phenyl-imidazo[1,2-a]pyrimidin-7-yl)-amide]] was 86.4 nM; that for `Cn1ncc(Br)c1C(=O)Nc1ccn2cc(-c3ccccc3)nc2n1` [Example 6, 4-Bromo-2-methyl-2H-pyrazole-3-carboxylic acid (2-phenyl-imidazo[1,2-a]pyrimidin-7-yl)-amide] was 384 nM.
In the case of `CCc1cc(CNC(=O)c2cnn(C)c2C(=O)Nc2ccn3cc(-c4ccccc4)nc3n2)on1` [Example 160, N4-((3-ethylisoxazol-5-yl)methyl)-1-methyl-N5-(2-phenylimidazo[1,2-a]pyrimidin-7-yl)-1H-pyrazole-4,5-dicarboxamide] it was 459 nM; in that of `Cn1ncc(C(=O)NCCC(F)(F)F)c1C(=O)Nc1ccn2cc(-c3ccccc3)nc2n1` [Example 126, 1-methyl-N5-(2-phenylimidazo[1,2-a]pyrimidin-7-yl)-N4-(3,3,3-trifluoropropyl)-1H-pyrazole-4,5-dicarboxamide], 24.7 nM; in that of `Cc1nn(C)c(C(=O)Nc2ccn3cc(-c4ccccc4)nc3n2)c1Cl` [Example 3, 4-Chloro-2,5-dimethyl-2H-pyrazole-3-carboxylic acid (2-phenyl-imidazo[1,2-a]pyrimidin-7-yl)-amide], 97 nM.
Regarding `CN(CCO)C(=O)c1cnn(C)c1C(=O)Nc1ccn2cc(-c3ccccc3)nc2n1` [Example 53, 2-Methyl-2H-pyrazole-3,4-dicarboxylic acid 4-[(2-hydroxy-ethyl)-methyl-amide]3-[(2-phenyl-imidazo[1,2-a]pyrimidin-7-yl)-amide]], the IC50 came to 23.6 nM.
In the case of `CN(Cc1ccccn1)C(=O)c1cnn(C)c1C(=O)Nc1ccn2cc(-c3ccccc3)nc2n1` [Example 135, N4,1-dimethyl-N5-(2-phenylimidazo[1,2-a]pyrimidin-7-yl)-N4-(pyridin-2-ylmethyl)-1H-pyrazole-4,5-dicarboxamide] it was 64.1 nM; in that of `COc1cccc(-c2cn3ccc(NC(=O)c4c(C(=O)N(C)C)cnn4C)nc3n2)c1` [Example 85, 2-Methyl-2H-pyrazole-3,4-dicarboxylic acid 4-dimethylamide 3-{[2-(3-methoxy-phenyl)-imidazo[1,2-a]pyrimidin-7-yl]-amide}], 4 nM.
The value for `CCCn1ccc(CNC(=O)c2cnn(C)c2C(=O)Nc2ccn3cc(-c4ccccc4)nc3n2)n1` [Example 164, 1-methyl-N5-(2-phenylimidazo[1,2-a]pyrimidin-7-yl)-N4-((1-propyl-1H-pyrazol-3-yl)methyl)-1H-pyrazole-4,5-dicarboxamide] was 725 nM.
